Publication PMC10368209, “Indolo[2,3-e]benzazocines and indolo[2,3-f]benzazonines and their copper(II) complexes as microtubule destabilizing agents” (Dalton Transactions (Cambridge, England : 2003), 2023)
Converted amounts (≈) assume the structure as drawn. “And” between values parts separate entries of the source, which are not always exact repeats. Identical values can stand only once. Like-named read-outs stand apart in the source and are kept apart here.

Key:
[1] = system: tubulin (colchicine site); test: Inhibition of [3H]colchicine binding to tubulin; conditions: 0.5 μM tubulin, 5 μM [3H]colchicine
Procedure: (§1) The methods used to determine the IC50 values for tubulin assembly and inhibition of [^3H]colchicine binding were recently described in detail.[96] In brief, for the assembly assay, 0.25 mL reaction mixtures contained 1.0 mg mL^−1 (10 μM) tubulin, 0.8 M monosodium glutamate (pH 6.6 with HCl in 2.0 M stock solution), 4% (v/v) DMSO (compound solvent), varying compound concentrations, and 100 μM GTP. All components except GTP were preincubated at 30 °C for 15 min in a 0.24 mL volume. Reaction mixtures were then placed on ice, and the GTP was added in a 10 μL volume. Assembly was monitored in Beckman DU7400/7500 spectrophotometers equipped with electronic temperature controllers and driven by a custom program. The samples were transferred to cuvettes held at 0 °C, and the temperature was jumped to 30 °C over about 30 s. Change in turbidity was measured for 20 min at 350 nm, and the IC50 was defined as the compound concentration that reduced the extent of reaction by 50%. For the colchicine binding assay, reaction mixtures contained 0.05 mg mL^−1 (0.5 μM) tubulin, 5.0 μM [^3H]colchicine, 5% (v/v) DMSO (compound solvent), compound as indicated, and components found to stabilize the colchicine binding activity of tubulin. Incubation was for 10 min at 37 °C, at which time the amount of colchicine bound to the tubulin is 40–60% of maximum. Each reaction mixture was diluted with 2.0 mL of ice cold water and poured onto a single Whatman DEAE-cellulose filter (tubulin binds tightly to the filter, and unbound colchicine passes through). Gravity filtration was used for the samples, and the filters were then washed with three 2.0 mL aliquots of ice cold water (vacuum aspiration). The filters were counted in a Beckman scintillation counter, with correction for the amount of radiolabel bound to filters in the absence of tubulin.

[2] = system: purified tubulin; test: Inhibition of tubulin assembly (turbidity); format: biochemical; conditions: 10 μM tubulin, 30 °C, turbidity at 350 nm; read-out: Inhibition of tubulin assembly IC50 ± SD
Procedure: as §1, with “Incubation was for 10 min at 37 °C, at which time the amount of colchicine bound to the tubulin is 40–60% of maximum. Each reaction mixture was diluted with 2.0 mL of ice cold water and poured onto a single Whatman DEAE-cellulose filter (tubulin binds tightly to the filter, and unbound colchicine passes through). Gravity filtration was used for the samples, and the filters were then washed with three 2.0 mL aliquots of ice cold water (vacuum aspiration).” left out

[3] = system: doxorubicin-resistant Colo320 human colon adenocarcinoma cell line; test: In vitro cytotoxicity MTT assay; format: cell-based
Text: (§2) Four cell lines were used in this study: the doxorubicin-sensitive Colo205 (CCL-222, ATCC, Manassas, VA, USA) human colon adenocarcinoma cell line; the doxorubicin-resistant Colo320/MDR-LRP expressing P-glycoprotein (P-gp, ABCB1) (MDR1)-LRP (CCL-220.1, ATCC) human colon adenocarcinoma cell line; the hormone-responsive MCF-7 breast cancer cell line and the normal MRC-5 human embryonal lung fibroblast cell line (CCL-171, ATCC). The human cancer cell lines were purchased from LGC Promochem (Teddington, UK), and the MRC-5 cell line is a Sigma-Aldrich (Merck KGaA, Darmstadt, Germany) product. The Colo205 and Colo320 cell lines were cultured in RPMI 1640 medium supplemented with 10% fetal bovine serum (FBS), 2 mM L-glutamine, 1 mM Na-pyruvate and 10 mM HEPES. The MCF-7 and MRC-5 cells were cultured in Eagle's Minimal Essential Medium (EMEM) containing 4.5 g L^−1 of glucose and supplemented with a non-essential amino acid mixture, a selection of vitamins and 10% FBS. All cell lines were incubated at 37 °C, 5% CO2, 95% air atmosphere. The cells were detached with Trypsin-Versene (EDTA) solution for 5 min at 37 °C.
(§3) Prior to the cytotoxicity assays 10 mM stock solutions of the tested compounds were prepared in DMSO. These stock solutions were diluted with the culture medium (EMEM or RPMI 1640), and twofold serial dilutions of the compounds were prepared in 100 μL of the appropriate medium. […] The positive control was doxorubicin (Merck), and CuCl2 was also tested. All cancer cells were treated with Trypsin-Versene (EDTA) solution. A cell density of 1 × 10^4 cells was adjusted for the colon adenocarcinoma cells in 100 μL of RPMI 1640 medium and were added to each well, except for the medium control wells. The final volume was 200 μL in the wells containing compounds and cells. The MCF-7 and MRC-5 cells were seeded overnight prior to the assay. The following day, the serial dilution of the compounds were made in separate plates and added to the cells. The culture plates were incubated at 37 °C for 72 h; and at the end of the incubation period, 20 μL of 5 mg mL^−1 3-(4,5-dimethylthiazol-2-yl)-2,5-diphenyltetrazolium bromide (MTT) solution was added to each well and incubated for 4 h at 37 °C. The plates were further incubated at 37 °C overnight following the addition of 100 μL of sodium dodecyl sulfate (SDS) solution (10% in 0.01 M HCl). The optical density (OD) was measured at 450 nm (ref. 620 nm) with a Multiscan EX ELISA reader to follow the cell growth. Inhibition of cell growth (expressed as IC50: inhibitory concentration that reduces by 50% the growth of the cells exposed to the tested compounds) was determined from the sigmoid curve, where 100 − ((ODsample − ODmedium control)/(ODcell control − ODmedium control)) × 100 values were plotted against the logarithm of compound concentrations. The sigmoidal dose–response model (comparing variable and fixed slopes) of the GraphPad Prism software[88] was used to fit the curves. The IC50 values are averages from at least 3 independent experiments.

[4] = system: Colo205 human colon adenocarcinoma cell line; test: In vitro cytotoxicity MTT assay; format: cell-based
Text: as §2, §3

[5] = system: normal human embryonal lung fibroblast cells (MRC-5); test: In vitro cytotoxicity MTT assay; format: cell-based; conditions: Homo sapiens, MRC5, 72 h incubation
Text: as §2, §3

[6] = Thermodynamic solubility by UV-vis in saturated solutions; format: physicochemical; conditions: 20 mM HEPES buffer, 25 °C, aqueous buffer, thermodynamic from solid; pH 7.4 (20 mM HEPES), aqueous solution, T = 298 K, I = 0.10 M (KCl); read-out: Thermodynamic solubility S 7.4
Procedure: The thermodynamic solubility (S) of the studied compounds was determined in saturated solutions at pH 7.40 (20 mM HEPES buffer) in the absence of DMSO at 25.0 ± 0.1 °C. UV–vis spectrophotometry was applied to determine the concentration of the compounds using calibrating samples of the compounds of known concentrations dissolved in 100% DMSO and 50% (v/v) DMSO/buffered aqueous solutions.

[7] = system: ct-DNA; test: Ethidium displacement from ct-DNA by spectrofluorimetry; format: binding, calf; conditions: cDNA = 0.5 μM, cethidium = 0.25 μM, 298 K, 10 mM HEPES, pH 7.40
Procedure: Fluorescence measurements were carried out on a Fluoromax (Horiba Jobin Yvon) fluorimeter. Stock solutions of the complexes and ligands were prepared in pure DMSO (c = 1 or 0.5 mM). Stock solution of ct-DNA was prepared as described recently.[86] The sample volume was […] and contained 0.5 μM ct-DNA expressed in base pairs, 0.25 μM ethidium and different concentrations of complexes 1, 2, 4, 5, 6, 4(6), 4(7) or ligands (HL^1, HL^2, HL^5, HL^6) in 10 mM HEPES buffer (pH 7.40). DMSO content of the samples varied between 0 and 1% (v/v). The excitation wavelength was 510 nm, and the fluorescence emission was measured in the range of 530–750 nm. Corrections for self-absorbance and inner filter effect were performed as described previously.[87]

[8] = Proton dissociation constants of ligands by UV-vis titrations; format: physicochemical; conditions: DMSO:water 30:70 (v/v) mixture, 30:70% (v/v) DMSO/H2O, T = 298 K, I = 0.10 M (KCl)
Procedure: The UV–vis spectra were recorded on an Agilent Cary 8454 diode array spectrophotometer between 200 and 800 nm. Spectrophotometric titrations were carried out on samples containing the ligand (HL^1, HL^2, HL^5 or HL^1(7)) or the ligand and Cu(II) ions together at different ligand-to-metal ratios (1 : 1, 1.5 : 1, 2 : 1) by a KOH solution in a DMSO : water 30 : 70 (v/v) mixture as solvent at 25.0 ± 0.1 °C in the pH range from 1.7 to 12.7 using 0.1 M KCl ionic strength. The concentration of ligands was 10 μM. The path length was 5 cm. For pH measurements and titrations, an Orion 710A pH-meter equipped with a Metrohm combined electrode (type 6.0234.100) and a Metrohm 665 Dosimat burette was used. Blank titrations (HCl vs. KOH) were performed similarly to the method proposed by Irving et al. for pure aqueous solutions to calibrate the electrode system to the pH = −log[H+] scale in the DMSO–water solvent mixture.[83] The water ionization constant (pKw) was determined to be 14.52 ± 0.05 on average, which is in line with the literature data.[84] During the titrations argon was passed over the solutions. The computer program PSEQUAD was used to calculate the proton dissociation constants (pKa) of the ligands, the overall stability constants (log β) of the Cu(II) complexes and the individual spectra of the various species present in solution.[85] […]

[9] = Stability constants and pKa of Cu(II) complexes by UV-vis titrations; format: physicochemical; conditions: 30:70% (v/v) DMSO/H2O
Procedure: The UV–vis spectra were recorded on an Agilent Cary 8454 diode array spectrophotometer between 200 and 800 nm. Spectrophotometric titrations were carried out on samples containing the ligand (HL^1, HL^2, HL^5 or HL^1(7)) or the ligand and Cu(II) ions together at different ligand-to-metal ratios (1 : 1, 1.5 : 1, 2 : 1) by a KOH solution in a DMSO : water 30 : 70 (v/v) mixture as solvent at 25.0 ± 0.1 °C in the pH range from 1.7 to 12.7 using 0.1 M KCl ionic strength. The concentration of ligands was 10 μM. The path length was 5 cm. For pH measurements and titrations, an Orion 710A pH-meter equipped with a Metrohm combined electrode (type 6.0234.100) and a Metrohm 665 Dosimat burette was used. Blank titrations (HCl vs. KOH) were performed similarly to the method proposed by Irving et al. for pure aqueous solutions to calibrate the electrode system to the pH = −log[H+] scale in the DMSO–water solvent mixture.[83] The water ionization constant (pKw) was determined to be 14.52 ± 0.05 on average, which is in line with the literature data.[84] During the titrations argon was passed over the solutions. The computer program PSEQUAD was used to calculate the proton dissociation constants (pKa) of the ligands, the overall stability constants (log β) of the Cu(II) complexes and the individual spectra of the various species present in solution.[85] In the general equilibrium pM + qL + rH ⇌ MpLqHr the stability constants is defined as β(MpLqHr) = [MpLqHr]/[M]^p[L]^q[H]^r, where M denotes the Cu(II) ion and L the completely deprotonated ligand. The calculations were always performed from experimental data where no precipitation was observed during titration.

[10] = system: MCF-7 breast cancer cells; test: In vitro cytotoxicity MTT assay; format: cell-based, human
Procedure: The human cancer cell lines were purchased from LGC Promochem (Teddington, UK), and the MRC-5 cell line is a Sigma-Aldrich (Merck KGaA, Darmstadt, Germany) product. […] The MCF-7 and MRC-5 cells were cultured in Eagle's Minimal Essential Medium (EMEM) containing 4.5 g L^−1 of glucose and supplemented with a non-essential amino acid mixture, a selection of vitamins and 10% FBS. […] The cells were detached with Trypsin-Versene (EDTA) solution for 5 min at 37 °C.
Prior to the cytotoxicity assays 10 mM stock solutions of the tested compounds were prepared in DMSO. […] The positive control was doxorubicin (Merck), and CuCl2 was also tested. All cancer cells were treated with Trypsin-Versene (EDTA) solution. […] The final volume was 200 μL in the wells containing compounds and cells. The MCF-7 and MRC-5 cells were seeded overnight prior to the assay. The following day, the serial dilution of the compounds were made in separate plates and added to the cells. The culture plates were incubated at 37 °C for 72 h; and at the end of the incubation period, 20 μL of 5 mg mL^−1 3-(4,5-dimethylthiazol-2-yl)-2,5-diphenyltetrazolium bromide (MTT) solution was added to each well and incubated for 4 h at 37 °C. The plates were further incubated at 37 °C overnight following the addition of 100 μL of sodium dodecyl sulfate (SDS) solution (10% in 0.01 M HCl). The optical density (OD) was measured at 450 nm (ref. 620 nm) with a Multiscan EX ELISA reader to follow the cell growth. […] The sigmoidal dose–response model (comparing variable and fixed slopes) of the GraphPad Prism software[88] was used to fit the curves. The IC50 values are averages from at least 3 independent experiments.

[11] = selectivity factor normal vs cancer cells
[12] = Cu(II) complex of the ligand, T = 298 K, I = 0.10 M (KCl)

Structure (SMILES)	Inhibition of colchicine binding % inhibition ± SD ([1]; 0.5 μM inhibitor) [%]	Inhibition of colchicine binding % inhibition ± SD ([1]; 5 μM inhibitor) [%]	IC50 [2]	IC50 ([3]; Homo sapiens, COLO 320, 72 h incubation, MTT) [µM]	SF (Colo320) = IC50 MRC-5/IC50 Colo320 [3, 11]	IC50 ([4]; Homo sapiens, COLO 205, 72 h incubation, MTT) [µM]	SF (Colo205) = IC50 MRC-5/IC50 Colo205 [4, 11]	IC50 [5] [µM]	solubility thermodynamic [6] [µM]	Inhibition of colchicine binding % inhibition ± SD ([1]; 25 μM inhibitor) [%]	Displacement of intercalated ethidium from ct-DNA (in words) [7]	pKa ([8]; read-out: pKa1 H2(HL)^2+)	pKa ([8]; read-out: pKa2 H(HL)^+)	log β [Cu(HL)]^2+ [9, 12]	log β [Cu(L)]^+ [9, 12]	log K′ [Cu(L)]^+ ([9]; K′: H2(HL)^2+ + Cu^2+ ⇌ [Cu(L)]^+ + 3H^+, 298 K)	IC50 ([10]; Homo sapiens, MCF7, 72 h incubation, MTT) [µM]	SF (MCF-7) = IC50 MRC-5/IC50 MCF-7 [10, 11]
COc1ccc(/C=C\c2cc(OC)c(OC)c(OC)c2)cc1O [CA-4, combretastatin A-4, reference compound]	81 ± 4	[…]	[…]	–	–	–	–	–	–	–	–	–	–	–	–	–	–	–
C(=N\N=C1/NCCc2ccccc2-c2c1[nH]c1ccccc21)/c1ccccn1 [HL^1]	–	18 ± 5	–	5.6 ± 0.1	7.26	30 ± 2	1.37	40 ± 1	8 (≈ 2.92 µg/mL)	46 ± 5	could not displace the intercalated ethidium cation	2.07 ± 0.01	5.04 ± 0.02	8.55 ± 0.02	4.14 ± 0.02	−2.97	1.3 ± 0.1	31.03
